# According to patent US12247011B2, “Selective inhibitors of NLRP3 inflammasome” (NodThera Limited, priority 2017, dated 2025):
# Tested on: IL-1β release upon NLRP3 activation in peripheral blood mononuclear cells (PBMC)
# Assay: PBMC IC50 Determination Assay
# Type: cell-based
# Conditions: Homo sapiens; LPS-primed PBMC, 30 min compound, stimulated with ATP (5 mM) or nigericin (10 μM) for 1 h; IL-1β ELISA; read-out: PBMC IC50
# Method: PBMC IC50 Determination Assay
# The compounds of the present disclosure were tested for their inhibitory activity against IL-1β release upon NLRP3 activation in peripheral blood mononuclear cells (PBMC).
# Isolated cells were seeded into the wells of a 96-well plate and incubated for 3 h with lipopolysaccharide (LPS). Following medium exchange, the compounds of the present disclosure were added (a single compound per well) and the cells were incubated for 30 min. Next, the cells were stimulated either with ATP (5 mM) or nigericin (10 μM) for 1 h and the cell culture media from the wells were collected for further analysis.
# The release of IL-1β into the media was determined by a quantitative detection of IL-1β in the media using an IL-1β enzyme-linked immunosorbent assay (ELISA) Ready-SET-Go!, eBioscience cat. […] Subsequently, plates were blocked with blocking buffer for 1 h at room temperature (rt) and after washing with a buffer (PBS with 0.05% Tween-20) incubated with protein standard and culture media. […] Plates were washed and incubated with HRP-streptavidin for 30 min at rt and washed again. The signal was developed after addition of 3,3,5,5-tetramethylbenzidine-peroxidase (TMB) until colour appeared and the reaction was stopped by 2 M H2SO4. A microplate spectrophotometer (BioTek) was used to detect signals with 450 nm. The detection range of IL-1β ELISA was 2-150 ng/ml.
row,Structure (SMILES),IC50 [nM]
1,"CCOC(=O)[C@@H](Cn1cc(Cl)cn1)OC(=O)Nc1c2c(cc3c1CCC3)CCC2 [Compound 88, Ethyl (2R)-3-(4-chloro-1H-pyrazol-1-yl)-2-{[(1,2,3,5,6,7-hexahydro-s-indacen-4-yl)carbamoyl]oxy}propanoate]",10 to 100
2,"CCOC(=O)C(Cn1cc(OC)cn1)OC(=O)Nc1c2c(cc3c1CCC3)CCC2 (stereo not shown) [Compound 92, Ethyl 2-{[(1,2,3,5,6,7-hexahydro-s-indacen-4-yl)carbamoyl]oxy}-3-(4-methoxy-1H-pyrazol-1-yl)propanoate]",100 to 1000
3,"CCOC(=O)[C@@H](CCc1ccccc1)OC(=O)Nc1c2c(cc3c1CCC3)CCC2 [Compound 30, Ethyl (2R)-2-{[(1,2,3,5,6,7-hexahydro-s-indacen-4-yl)carbamoyl]oxy}-4-phenylbutanoate]",100 to 1000
4,"CCOC(=O)[C@@H](Cn1ccc(C#N)n1)OC(=O)Nc1c2c(cc3c1CCC3)CCC2 [Compound 96, Ethyl (2R)-3-(3-cyano-1H-pyrazol-1-yl)-2-{[(1,2,3,5,6,7-hexahydro-s-indacen-4-yl)carbamoyl]oxy}propanoate]",100 to 1000
5,"CCOC(=O)C(Cn1cccn1)OC(=O)Nc1c(Cl)cccc1CC (stereo not shown) [Compound 85, Ethyl 2-{[(2-chloro-6-ethylphenyl)carbamoyl]oxy}-3-(1H-pyrazol-1-yl)propanoate]",10 to 100
6,"O=C(COC(=O)Nc1c2c(cc3c1CCC3)CCC2)OCC1CC1 [Compound 22, Cyclopropylmethyl 2-{[(1,2,3,5,6,7-hexahydro-s-indacen-4-yl)carbamoyl]oxy}acetate]",100 to 1000
7,"CCOC(=O)COC(=O)Nc1c(CC)cc(C)cc1CC [Compound 28, Ethyl 2-{[(2,6-diethyl-4-methylphenyl)carbamoyl]oxy}acetate]",1000 to 10000
8,"CCOC(=O)COC(=O)Nc1ccccc1C(C)(C)C [Compound 13, Ethyl 2-{[(2-tert-butylphenyl)carbamoyl]oxy}acetate]",1000 to 10000
9,"O=C(Nc1c2c(cc3c1CCC3)CCC2)O[C@H](Cn1cncn1)C(=O)OC1CCCC1 [Compound 116, Cyclopentyl (2R)-2-{[(1,2,3,5,6,7-hexahydro-s-indacen-4-yl)carbamoyl]oxy}-3-(1H-1,2,4-triazol-1-yl)propanoate]",< 10
10,"CCOC(=O)C(Cn1cc(F)cn1)OC(=O)Nc1c2c(cc3c1CCC3)CCC2 (stereo not shown) [Compound 80, Ethyl 3-(4-fluoro-1H-pyrazol-1-yl)-2-{[(1,2,3,5,6,7-hexahydro-s-indacen-4-yl)carbamoyl]oxy}propanoate]",10 to 100
11,"COCC(OC(=O)Nc1c2c(cc3c1CCC3)CCC2)C(=O)O (stereo not shown) [Compound 38, 2-{[(1,2,3,5,6,7-hexahydro-s-indacen-4-yl)carbamoyl]oxy}-3-methoxypropanoic acid]",1000 to 10000
12,"CCOC(=O)COC(=O)Nc1cc(C)ccc1C [Compound 37, Ethyl 2-{[(2,5-dimethylphenyl)carbamoyl]oxy}acetate]",100 to 1000
13,"CCOC(=O)C(Cc1cccnn1)OC(=O)Nc1c2c(cc3c1CCC3)CCC2 (stereo not shown) [Compound 62, Ethyl 2-{[(1,2,3,5,6,7-hexahydro-s-indacen-4-yl)carbamoyl]oxy}-3-(pyridazin-3-yl)propanoate]",100 to 1000
14,"Cc1nccc(CC(OC(=O)Nc2c3c(cc4c2CCC4)CCC3)C(=O)OC(C)C)n1 (stereo not shown) [Compound 120, Propan-2-yl 2-{[(1,2,3,5,6,7-hexahydro-s-indacen-4-yl)carbamoyl]oxy}-3-(2-methylpyrimidin-4-yl)propanoate]",10 to 100
15,"O=C(Nc1c2c(cc3c1CCC3)CCC2)O[C@H](Cc1cnccn1)C(=O)OC1CCCC1 [Compound 111, Cyclopentyl (2R)-2-{[(1,2,3,5,6,7-hexahydro-s-indacen-4-yl)carbamoyl]oxy}-3-(pyrazin-2-yl)propanoate]",< 10
16,"CCOC(=O)C(Cn1cccn1)OC(=O)NC1CCCCC1 (stereo not shown) [Compound 53, ethyl 2-[(cyclohexylcarbamoyl)oxy]-3-(1H-pyrazol-1-yl)-propanoate]",1000 to 10000
17,"CCOC(=O)C(Cn1ccnc1C)OC(=O)Nc1c2c(cc3c1CCC3)CCC2 (stereo not shown) [Compound 84, Ethyl 2-{[(1,2,3,5,6,7-hexahydro-s-indacen-4-yl)carbamoyl]oxy}-3-(2-methyl-1H-imidazol-1-yl)propanoate]",1000 to 10000
18,"CC(C)OC(=O)[C@@H](Cn1cnc(C#N)n1)OC(=O)Nc1c2c(cc3c1CCC3)CCC2 [Compound 126, Propan-2-yl (2R)-3-(3-cyano-1H-1,2,4-triazol-1-yl)-2-{[(1,2,3,5,6,7-hexahydro-s-indacen-4-yl)carbamoyl]oxy}propanoate]",10 to 100
19,"CCOC(=O)[C@@H](Cn1cnc(C)n1)OC(=O)Nc1c2c(cc3c1CCC3)CCC2 [Compound 105, Ethyl (2R)-2-{[(1,2,3,5,6,7-hexahydro-s-indacen-4-yl)carbamoyl]oxy}-3-(3-methyl-1H-1,2,4-triazol-1-yl)propanoate]",10 to 100

row,Structure (SMILES),IC50 [nM]
1,"CCOC(=O)[C@@H](Cc1cccc(C#N)c1)OC(=O)Nc1c2c(cc3c1CCC3)CCC2 [Compound 41, Ethyl (2R)-3-(3-cyanophenyl)-2-{[(1,2,3,5,6,7-hexahydro-s-indacen-4-yl)carbamoyl]oxy}propanoate]",10 to 100
2,"CCOC(=O)C(Cc1ccccn1)OC(=O)Nc1c2c(cc3c1CCC3)CCC2 (stereo not shown) [Compound 18, Ethyl 2-(((1,2,3,5,6,7-hexahydro-s-indacen-4-yl)carbamoyl)oxy)-3-(pyridin-2-yl)propanoate]",100 to 1000
3,"CCOC(=O)C(Cn1cccn1)OC(=O)Nc1c(C)cccc1CC (stereo not shown) [Compound 46, Ethyl 2-{[(2-ethyl-6-methylphenyl)carbamoyl]oxy}-3-(1H-pyrazol-1-yl)propanoate]",100 to 1000
4,"Cc1cncc(CC(OC(=O)Nc2c3c(cc4c2CCC4)CCC3)C(=O)OC(C)C)n1 (stereo not shown) [Compound 117, Propan-2-yl 2-{[(1,2,3,5,6,7-hexahydro-s-indacen-4-yl)carbamoyl]oxy}-3-(6-methylpyrazin-2-yl)propanoate]",< 10
5,"CCOC(=O)[C@@H](Cc1ccc(C#N)cc1)OC(=O)Nc1c2c(cc3c1CCC3)CCC2 [Compound 25, Ethyl 3-(4-cyanophenyl)-2-{[(1,2,3,5,6,7-hexahydro-s-indacen-4-yl)carbamoyl]oxy}propanoate]",100 to 1000
6,"CCOC(=O)[C@@H](Cn1cncc1C#N)OC(=O)Nc1c2c(cc3c1CCC3)CCC2 [Compound 90, Ethyl (2R)-3-(5-cyano-1H-imidazol-1-yl)-2-{[(1,2,3,5,6,7-hexahydro-s-indacen-4-yl)carbamoyl]oxy}propanoate]",1000 to 10000
7,"CCOC(=O)[C@@H](COCCOC)OC(=O)Nc1c2c(cc3c1CCC3)CCC2 [Compound 101, Ethyl (2R)-2-{[(1,2,3,5,6,7-hexahydro-indacen-4-yl)carbamoyl]oxy}-3-(2-methoxyethoxy)propanoate]",100 to 1000
8,"CCOC(=O)C(Cn1cccn1)OC(=O)Nc1c(F)ccc(F)c1F (stereo not shown) [Compound 63, Ethyl 3-(1H-pyrazol-1-yl)-2-{[(2,3,6-trifluorophenyl)carbamoyl]oxy}propanoate]",100 to 1000
9,"CCOC(=O)COC(=O)Nc1cccc2ccccc12 [Compound 4, Ethyl 2-{[(naphthalen-1-yl)carbamoyl]oxy}acetate]",1000 to 10000
10,"CCOC(=O)C(Cc1ccccc1)OC(=O)Nc1c2c(cc3c1CCC3)CCC2 (stereo not shown) [Compound 17, Ethyl 2-(((1,2,3,5,6,7-hexahydro-s-indacen-4-yl)carbamoyl)oxy)-3-phenylpropanoate]",100 to 1000
11,"CCOC(=O)C(Cn1cccn1)OC(=O)Nc1c(F)cccc1Cl (stereo not shown) [Compound 50, Ethyl 2-{[(2-chloro-6-fluorophenyl)carbamoyl]oxy}-3-(1H-pyrazol-1-yl)propanoate]",100 to 1000
12,"CCOC(=O)C(Cn1cccn1)OC(=O)Nc1c(Cl)cccc1C#N (stereo not shown) [Compound 59, Ethyl 2-{[(2-chloro-6-cyanophenyl)carbamoyl]oxy}-3-(1H-pyrazol-1-yl)propanoate]",> 10000
13,"CC(C)OC(=O)C(Cc1ncccn1)OC(=O)NC12CCC(CC1)CC2 (stereo not shown) [Compound 127, Propan-2-yl 2-[({bicyclo[2.2.2]octan-1-yl}carbamoyl)oxy]-3-(pyrimidin-2-yl)propanoate]",1000 to 10000
14,"CCOC(=O)C(Cn1cccn1)OC(=O)Nc1cccc(C(F)(F)F)c1Cl (stereo not shown) [Compound 70, Ethyl 2-({[2-chloro-3-(trifluoromethyl)phenyl]carbamoyl}oxy)-3-(1H-pyrazol-1-yl)propanoate]",1000 to 10000
15,"CCOC(=O)COC(=O)Nc1cc(C(F)(F)F)ccc1Cl [Compound 35, Ethyl 2-({[2-chloro-5-(trifluoromethyl)phenyl]carbamoyl}oxy)acetate]",> 10000
16,"O=C(COC(=O)Nc1c2c(cc3c1CCC3)CCC2)OC1CCCC1 [Compound 32, Cyclopentyl 2-{[(1,2,3,5,6,7-hexahydro-s-indacen-4-yl)carbamoyl]oxy}acetate]",100 to 1000
17,"CCOC(=O)[C@@H](Cn1cc(C(F)(F)F)cn1)OC(=O)Nc1c2c(cc3c1CCC3)CCC2 [Compound 97, Ethyl (2R)-2-{[(1,2,3,5,6,7-hexahydro-s-indacen-4-yl)carbamoyl]oxy}-3-[4-(trifluoromethyl)-1H-pyrazol-1-yl]propanoate]",100 to 1000
18,"CCOC(=O)COC(=O)Nc1c(C)cccc1C [Compound 8, Ethyl 2-{[(2,6-dimethylphenyl)carbamoyl]oxy}acetate]",100 to 1000
